Laboratory results taken from patent publication US20260083865A1, “PROSTATE SPECIFIC MEMBRANE ANTIGEN (PSMA) LIGANDS AND USE THEREOF” (priority 2022, published 2026).
Read-outs that look alike come from different tables or passages of the source. Numbered stars: 1 amine (or outer) side, 2 acyl side, 3 side chain; on linkers, the order of the positions; unused ones are H or OH. Bridge positions count the residues as written; N and C are the ends. Square brackets hold non-standard residues; d marks the D form. Peptide text beside a SMILES is read from it. * marks the point of attachment. TtdsdLys(DOTA)NH2 = NC(=O)[C@@H](CCCCNC(=O)CN1CCN(CC(=O)O)CCN(CC(=O)O)CCN(CC(=O)O)CC1)NC(=O)CCC(=O)NCCCOCCOCCOCCCN*; DOTA = O=C(O)CN1CCN(CC(=O)O)CCN(CC(=O)*)CCN(CC(=O)O)CC1; Phe(3,4-Cl2) = N[C@@H](Cc1ccc(Cl)c(Cl)c1)C(=O)O; Phe(3-Cl) = N[C@@H](Cc1cccc(Cl)c1)C(=O)O; Phe(4-CN) = N#Cc1ccc(C[C@H](N)C(=O)O)cc1; Phe(4-Cl) = N[C@@H](Cc1ccc(Cl)cc1)C(=O)O; X1 = O=C(CC1CCN([*:1])CC1)[*:2]; Cit = NC(=O)NCCC[C@H](N)C(=O)O; Tle = CC(C)(C)[C@H](N)C(=O)O; 4Amb = NCc1ccc(C(=O)O)cc1; Aib = CC(C)(N)C(=O)O

Legend:
[1] = biological target: T1, PSMA-expressing C4-2 cells (Homo sapiens, UniProt Q04609); test: FACS binding assay (competition with 50 nM PSM-0183); conditions: FACS binding, read-out: pIC50 [C4-2] CAT (converted)
T1 construct: PSMA-expressing C4-2 cells (ATCC, Cat. No. CRL-3314) were cultured in RPMI-1640; host or cells: C4-2 cells
In short: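 Competition format: fluorescent tracer PSM-0183 (50 nM) displaced from PSMA on C4-2 cells by a test compound titration over 1 h at 4 °C. Bound tracer was quantified as flow-cytometric AF488 median fluorescence after washing. Four-parameter logistic fits of MFI data gave IC50 and pIC50.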

[2] = biological target: T2, Fc-fusion protein of human PSMA (hPSMA-Fc) (Homo sapiens, UniProt Q04609); test: Surface plasmon resonance assay (Biacore T200, single cycle kinetic); assay type: binding; conditions: hPSMA-Fc, 25° C., read-out: pKD CAT (converted)
T2 construct: purchased Acro Biosystems PSA-H5264
In short: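 KD, expressed as pKD, came from 1:1 Langmuir fits of reference- and buffer-blank-subtracted SPR data. The runs were single-cycle kinetics at 25° C in HBST/0.1% DMSO over human PSMA-Fc, captured to ~1000 RU on a peptide-coated CM5 surface and regenerated with 10 mM glycine pH 1.5.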

[3] = PSMA-expressing C4-2 cells, pIC50 category

T2 sequence (Q04609 44-750 limits assumed): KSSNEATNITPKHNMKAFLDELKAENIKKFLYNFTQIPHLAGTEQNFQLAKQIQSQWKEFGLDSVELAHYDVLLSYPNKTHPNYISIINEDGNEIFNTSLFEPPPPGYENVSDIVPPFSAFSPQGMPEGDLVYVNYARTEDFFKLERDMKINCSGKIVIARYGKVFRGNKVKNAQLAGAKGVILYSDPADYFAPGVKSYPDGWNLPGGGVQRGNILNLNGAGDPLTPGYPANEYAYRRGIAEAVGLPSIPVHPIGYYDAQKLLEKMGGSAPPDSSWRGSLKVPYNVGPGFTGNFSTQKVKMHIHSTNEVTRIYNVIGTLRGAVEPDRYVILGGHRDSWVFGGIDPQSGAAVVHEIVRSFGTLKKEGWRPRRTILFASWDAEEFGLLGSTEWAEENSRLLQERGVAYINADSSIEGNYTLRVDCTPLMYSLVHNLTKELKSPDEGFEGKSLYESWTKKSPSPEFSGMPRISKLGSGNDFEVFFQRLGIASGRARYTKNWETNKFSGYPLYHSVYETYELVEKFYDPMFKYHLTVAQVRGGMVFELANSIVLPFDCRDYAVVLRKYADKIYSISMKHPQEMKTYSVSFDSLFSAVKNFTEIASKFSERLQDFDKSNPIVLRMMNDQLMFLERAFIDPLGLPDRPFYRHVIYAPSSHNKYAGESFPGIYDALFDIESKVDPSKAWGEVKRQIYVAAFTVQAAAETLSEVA
T1 sequence (Q04609 whole entry): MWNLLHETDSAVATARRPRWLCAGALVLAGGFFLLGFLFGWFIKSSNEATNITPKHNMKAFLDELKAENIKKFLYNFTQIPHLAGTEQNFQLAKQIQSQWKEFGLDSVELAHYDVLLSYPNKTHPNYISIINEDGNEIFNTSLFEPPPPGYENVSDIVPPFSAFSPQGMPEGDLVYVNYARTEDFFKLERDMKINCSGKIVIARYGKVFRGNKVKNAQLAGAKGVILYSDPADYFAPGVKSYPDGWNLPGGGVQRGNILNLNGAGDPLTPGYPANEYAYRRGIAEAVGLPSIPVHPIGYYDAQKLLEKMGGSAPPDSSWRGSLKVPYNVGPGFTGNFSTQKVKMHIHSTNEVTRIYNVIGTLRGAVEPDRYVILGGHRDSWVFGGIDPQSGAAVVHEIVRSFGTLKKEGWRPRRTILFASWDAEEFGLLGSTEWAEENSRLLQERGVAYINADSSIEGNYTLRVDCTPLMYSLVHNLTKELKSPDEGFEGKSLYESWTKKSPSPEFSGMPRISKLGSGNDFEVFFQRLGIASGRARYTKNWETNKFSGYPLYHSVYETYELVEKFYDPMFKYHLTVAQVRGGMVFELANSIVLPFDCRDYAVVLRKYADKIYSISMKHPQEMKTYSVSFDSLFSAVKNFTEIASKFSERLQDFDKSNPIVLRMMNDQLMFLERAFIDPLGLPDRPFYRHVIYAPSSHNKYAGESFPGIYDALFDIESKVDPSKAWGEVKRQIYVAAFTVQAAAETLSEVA

| SMILES | IC50 ([1]; C4-2 cells, competition with 50 nM PSM-0183, category) | Kd ([2]; SPR, single cycle kinetic, category) | IC50 [1, 3] | Kd ([2]; PSMA SPR assay, pKD category) |
| --- | --- | --- | --- | --- |
| CC(=O)N[C@H](C(=O)N[C@@H](C)C(=O)N[C@@H](Cc1ccccc1)C(=O)N[C@H]1CSSC[C@@H](C(=O)N[C@H](C(=O)N[C@H](C(=O)N[C@@H](CC(=O)O)C(=O)NCCCOCCOCCOCCCNC(=O)CCC(=O)N[C@H](CCCCNC(=O)CN2CCN(CC(=O)O)CCN(CC(=O)O)CCN(CC(=O)O)CC2)C(N)=O)[C@@H](C)O)C(C)(C)C)NC(=O)[C@H](CC(N)=O)NC(=O)[C@H](C)NC(=O)[C@H](CCCNC(=N)N)NC(=O)[C@H](CCCCN)NC1=O)[C@@H](C)O [PSM-0266, Ac-Thr-Ala-Phe-[Cys-Lys-Arg-Ala-Asn-Cys]-Tle-Thr-Asp-Ttds-lys(DOTA)-NH2] (Ac-TAFCKRANC[Tle]TD-{TtdsdLys(DOTA)NH2}; disulfide 4-9) | < 200 nM | 12.6 to 126 nM |  |  |
| C[C@@H](O)[C@H](NC(=O)[C@@H](NC(=O)[C@@H]1CSSC[C@H](NC(=O)[C@H](Cc2ccccc2)NC(=O)C(C)(C)NC(=O)c2ccc(CNC(=O)CN3CCN(CC(=O)O)CCN(CC(=O)O)CCN(CC(=O)O)CC3)cc2)C(=O)N[C@@H](CCCCN)C(=O)N[C@@H](CCCNC(=N)N)C(=O)NC(C)(C)C(=O)N[C@@H](CC(N)=O)C(=O)N1)C(C)(C)C)C(N)=O [PSM-0270, DOTA-Pamb-Aib-Phe-[Cys-Lys-Arg-Aib-Asn-Cys]-Tle-Thr-NH2] ({DOTA-4Amb}-[Aib]FCKR[Aib]NC[Tle]T-NH2; disulfide 3-8) |  |  | < 200 nM | < 12.6 nM |
| CC(=O)N[C@H](C(=O)NC(C)(C)C(=O)N[C@@H](Cc1cccc(Cl)c1)C(=O)N[C@H]1CSSC[C@@H](C(=O)N[C@H](C(=O)N[C@H](C(=O)N2CCC(CC(=O)N[C@H](CCCCNC(=O)CN3CCN(CC(=O)O)CCN(CC(=O)O)CCN(CC(=O)O)CC3)C(N)=O)CC2)[C@@H](C)O)C(C)(C)C)NC(=O)[C@H](CC(N)=O)NC(=O)C(C)(C)NC(=O)[C@H](CCCNC(N)=O)NC(=O)[C@H](CCCCN)NC1=O)[C@@H](C)O [PSM-0275, Ac-Thr-Aib-Mcf-[Cys-Lys-Cit-Aib-Asn-Cys]-Tle-Thr-Cmp-lys(DOTA)-NH2] (Ac-T[Aib][Phe(3-Cl)]CK[Cit][Aib]NC[Tle]T[X1][dK](DOTA)-NH2; disulfide 4-9) |  |  | 200 to 1260 nM | 12.6 to 126 nM |
| CC(=O)N[C@H](C(=O)NC(C)(C)C(=O)N[C@@H](Cc1ccc(C#N)cc1)C(=O)N[C@H]1CSSC[C@@H](C(=O)N[C@H](C(=O)N[C@H](C(N)=O)[C@@H](C)O)C(C)(C)C)NC(=O)[C@H](CC(N)=O)NC(=O)C(C)(C)NC(=O)[C@H](CCCNC(=N)N)NC(=O)[C@H](CCCCN)NC1=O)[C@@H](C)O [PSM-0278, Ac-Thr-Aib-Pnf-[Cys-Lys-Arg-Aib-Asn-Cys]-Tle-Thr-NH2] (Ac-T[Aib][Phe(4-CN)]CKR[Aib]NC[Tle]T-NH2; disulfide 4-9) |  |  | < 200 nM | < 12.6 nM |
| CC(=O)N[C@H](C(=O)NC(C)(C)C(=O)N[C@@H](Cc1ccccc1)C(=O)N[C@H]1CSSC[C@@H](C(=O)N[C@H](C(=O)N[C@H](C(N)=O)[C@@H](C)O)C(C)(C)C)NC(=O)[C@H](CO)NC(=O)C(C)(C)NC(=O)[C@H](CCCNC(=N)N)NC(=O)[C@H](CCCCN)NC1=O)[C@@H](C)O [PSM-0279, Ac-Thr-Aib-Phe-[Cys-Lys-Arg-Aib-Ser-Cys]-Tle-Thr-NH2] (Ac-T[Aib]FCKR[Aib]SC[Tle]T-NH2; disulfide 4-9) |  |  | < 200 nM | < 12.6 nM |

Continued, values first:

| IC50 ([1]; C4-2 cells, competition with 50 nM PSM-0183, category) | Kd ([2]; SPR, single cycle kinetic, category) | IC50 [1, 3] | Kd ([2]; PSMA SPR assay, pKD category) | SMILES |
| --- | --- | --- | --- | --- |
|  |  | < 200 nM | 12.6 to 126 nM | C[C@@H](O)[C@H](NC(=O)[C@@H](NC(=O)[C@@H]1CSSC[C@H](NC(=O)[C@H](Cc2ccc(Cl)c(Cl)c2)NC(=O)C(C)(C)NC(=O)[C@@H](NC(=O)CC2CCN(C(=O)CN3CCN(CC(=O)O)CCN(CC(=O)O)CCN(CC(=O)O)CC3)CC2)[C@@H](C)O)C(=O)N[C@@H](CCCCN)C(=O)N[C@@H](CCCNC(N)=O)C(=O)NC(C)(C)C(=O)N[C@@H](CC(N)=O)C(=O)N1)C(C)(C)C)C(N)=O [PSM-0274, DOTA-Cmp-Thr-Aib-Eaa-[Cys-Lys-Cit-Aib-Asn-Cys]-Tle-Thr-NH2] ({DOTA}-[X1]T[Aib][Phe(3,4-Cl2)]CK[Cit][Aib]NC[Tle]T-NH2; disulfide 5-10) |
|  |  | > 3160 nM | > 501 nM | C[C@@H](O)[C@H](NC(=O)[C@@H](NC(=O)[C@@H]1CSSC[C@H](NC(=O)[C@H](Cc2ccc(Cl)cc2)NC(=O)[C@H](CCC(=O)O)NC(=O)[C@@H](NC(=O)CC2CCN(C(=O)CN3CCN(CC(=O)O)CCN(CC(=O)O)CCN(CC(=O)O)CC3)CC2)[C@@H](C)O)C(=O)N[C@@H](CCCCN)C(=O)N[C@@H](CCCNC(=N)N)C(=O)NC(C)(C)C(=O)N[C@@H](CC(N)=O)C(=O)N1)C(C)(C)C)C(N)=O [PSM-0276, DOTA-Cmp-Thr-Glu-Pcf-[Cys-Lys-Arg-Aib-Asn-Cys]-Tle-Thr-NH2] ({DOTA}-[X1]TE[Phe(4-Cl)]CKR[Aib]NC[Tle]T-NH2; disulfide 5-10) |
